Here are results for 21 compounds from US8450525B2, “Histone deacetylase inhibitors” (Orchid Chemicals & Pharmaceuticals Limited, priority 2007, dated 2013).

In one assay the test system is NCI-H460 (lung) cells. Description: Anti-cancer screen, growth inhibition (MTT). In kind it is cell-based. The settings on record: Homo sapiens, 48 hours of incubation. In outline: (§1)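 MTT added for 3 h at 37° C, formazan dissolved in DMSO and A570 read. A T0 plate was measured at compound addition.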
Another assay has as its system U251 (glioma) cells. Description: Anti-cancer screen, growth inhibition (MTT). Format: cell-based. The settings on record: Homo sapiens, U-251 cells, 48 hours of incubation. In outline: as §1
A further assay has as its system HCT 116 (colon) cells. Description: Anti-cancer screen, growth inhibition (MTT). As to conditions: Homo sapiens, HCT-116 cells, 48 hours of incubation. Format: cell-based. In outline:
as §1

The test system of assay [1] is T1, HDAC (Mouse Liver Extract).
T1 construct: Mouse liver enzyme (10 mg/ml) was diluted 1:6 with HDAC buffer
Description: HDAC inhibition assay using Boc-Lys(Ac)-AMC substrate, mouse liver enzyme. In kind it is biochemical.

In the case of `Nc1ccccc1NC(=O)c1ccc(/C=C(/C(=O)NC2CC2)c2ccccc2F)cc1` [Example 109, N-(2-Aminophenyl)-4-(3-(cyclopropylamino)-2-(2-fluorophenyl)-3-oxoprop-1-en-1-yl)benzamide], the GI50 (usually the concentration giving 50% growth inhibition) in the assay on NCI-H460 (lung) cells amounted to 6.5 µM; in the assay on U251 (glioma) cells, 21 µM; in the assay with HCT 116 (colon) cells it was 4.1 µM. Further, in assay [1], the “HDAC Inhibition % (1 μM)” value is recorded as 35.8%. Further, the “HDAC Inhibition % (10 μM)” value in assay [1] is 66.8%.
In the case of `Nc1ccccc1NC(=O)c1ccc(/C=C(/C(=O)NC2CC2)c2cccs2)cc1` [Example 113, N-(2-Aminophenyl)-4-(3-(cyclopropylamino)-2-(thiophen-2-yl)-3-oxoprop-1-en-1-yl)benzamide], the GI50 with NCI-H460 (lung) cells was 25 µM; in the assay with U251 (glioma) cells it was 20 µM; in the assay with HCT 116 (colon) cells it was 11 µM. For the same compound, the “HDAC Inhibition % (1 μM)” value in assay [1] turned out to be 34.6%. Moreover, the “HDAC Inhibition % (10 μM)” value in assay [1] is on record as 51.8%.
For `Nc1ccccc1NC(=O)c1ccc(/C=C(/C(=O)NC2CC2)c2ccc(F)cc2Cl)cc1` [Example 117, N-(2-Aminophenyl)-4-(3-(cyclopropylamino)-2-(2-chloro-4-fluorophenyl)-3-oxoprop-1-en-1-yl)benzamide] the same measures were 10 µM, 3.8 µM, 68 µM, 36.2% and 66.6%.
Consider `COc1ccc(/C(=C\c2ccc(C(=O)Nc3ccccc3N)cc2)C(=O)Nc2ccccc2)cc1OC` [Example 118, N-(2-Aminophenyl)-4-(3-(phenylamino)-2-(3,4-dimethoxyphenyl)-3-oxoprop-1-en-1-yl)benzamide], for which the GI50 in the assay on NCI-H460 (lung) cells was 90 µM; in the assay with U251 (glioma) cells, 4.2 µM; in the assay on HCT 116 (colon) cells, 10 µM. In addition, the “HDAC Inhibition % (1 μM)” value in assay [1] stood at 21.0%. In addition, the “HDAC Inhibition % (10 μM)” value in assay [1] amounted to 46.0%.
For `COc1ccc(/C(=C\c2ccc(C(=O)Nc3ccccc3N)cc2)C(=O)NC2CC2)cc1OC` [Example 119, N-(2-Aminophenyl)-4-(3-(cyclopropylamino)-2-(3,4-dimethoxyphenyl)-3-oxoprop-1-en-1-yl)benzamide], the values for the GI50 in the assay on NCI-H460 (lung) cells, in the assay with U251 (glioma) cells and with HCT 116 (colon) cells were 28 µM, 18 µM and 32 µM, respectively. For the same compound, the “HDAC Inhibition % (1 μM)” value in assay [1] came out at 28.9%. The “HDAC Inhibition % (10 μM)” value in assay [1] was 33.9%.
For `COc1ccc(/C(=C\c2ccc(C(=O)Nc3ccccc3N)cc2)C(=O)NC2CC2)c(OC)c1` [Example 120, N-(2-Aminophenyl)-4-(3-(cyclopropylamino)-2-(2,4-dimethoxyphenyl)-3-oxoprop-1-en-1-yl)benzamide] the same measures were 21 µM, 10 µM, 10.5 µM, 36.9% and 59.3%.
With `Nc1ccccc1NC(=O)c1ccc(/C=C(/C(=O)NC2CC2)c2ccc3ccccc3c2)cc1` [Example 121, N-(2-Aminophenyl)-4-(3-(cyclopropylamino)-2-(2-naphthyl)-3-oxoprop-1-en-1-yl)benzamide], the GI50 with NCI-H460 (lung) cells turned out to be 3.1 µM; in the assay with U251 (glioma) cells, 9 µM; in the assay on HCT 116 (colon) cells, 1.7 µM. In assay [1], the “HDAC Inhibition % (1 μM)” value is 35.0%. Moreover, the “HDAC Inhibition % (10 μM)” value in assay [1] was determined as 63.5%.
For `COc1ccc(/C(=C\c2ccc(C(=O)Nc3ccccc3N)cc2)C(=O)Nc2ccccc2)c(OC)c1` [Example 122, N-(2-Aminophenyl)-4-(3-phenylamino-2-(2,4-dimethoxyphenyl)-3-oxoprop-1-en-1-yl)benzamide] the same measures were 11 µM, 50 µM, 2.6 µM, 28.9% and 54.1%.
Turning to `Nc1ccccc1NC(=O)c1ccc(/C=C(/C(=O)NC2CC2)c2c[nH]c3ccccc23)cc1` [Example 124, N-(2-Aminophenyl)-4-(3-(cyclopropylamino)-3-oxo-2-(1H-indol-3-yl)prop-1-en-1-yl)benzamide], the GI50 with NCI-H460 (lung) cells worked out at 4.5 µM; with U251 (glioma) cells, 2.6 µM; in the assay on HCT 116 (colon) cells, 2 µM. Moreover, the “HDAC Inhibition % (1 μM)” value in assay [1] is reported as 34.7%. The “HDAC Inhibition % (10 μM)” value in assay [1] was determined as 63.2%.
With `Nc1ccccc1NC(=O)c1ccc(/C=C(/C(=O)NC2CC2)c2ccc(-c3ccccc3)cc2)cc1` [Example 125, N-(2-Aminophenyl)-4-(3-(cyclopropylamino)-3-oxo-2-biphenyl-4-yl-prop-1-en-1-yl)benzamide], the GI50 with NCI-H460 (lung) cells came out at 35 µM; in the assay on U251 (glioma) cells it was 20 µM; in the assay on HCT 116 (colon) cells, 3.6 µM. The “HDAC Inhibition % (1 μM)” value in assay [1] is reported as 31.5%. Besides, in assay [1], the “HDAC Inhibition % (10 μM)” value was determined as 45.4%.
On to `O=C(NC1CC1)C(=Cc1ccc(C(=O)Nc2ccccc2O)cc1)c1ccc(F)cc1` [Example 126, 4-(2-(4-Fluorophenyl)-3-(cyclopropylamino)-3-oxoprop-1-en-1-yl)-N-(2-hydroxyphenyl)benzamide], for which the GI50 with NCI-H460 (lung) cells stood at 40 µM; in the assay with U251 (glioma) cells, 22 µM; in the assay with HCT 116 (colon) cells it was 14 µM. The “HDAC Inhibition % (1 μM)” value in assay [1] is reported as 36.9%. Also, in assay [1], the “HDAC Inhibition % (10 μM)” value amounted to 53.9%.
On to `Nc1ccccc1NC(=O)c1ccc(/C=C(/C(=O)NC2CC2)c2cccnc2)cc1` [Example 127, N-(2-Aminophenyl)-4-[3-(cyclopropylamino)-3-oxo-2-pyridin-3-yl-prop-1-en-1-yl]benzamide], for which the figures for the GI50 in the assay on NCI-H460 (lung) cells, in the assay on U251 (glioma) cells and in the assay with HCT 116 (colon) cells were 12 µM, 40 µM and 22 µM, respectively. In assay [1], the “HDAC Inhibition % (1 μM)” value is given as 36.9%. The “HDAC Inhibition % (10 μM)” value in assay [1] was determined as 55.4%.
As for `Nc1ccccc1NC(=O)c1ccc(/C=C(/C(=O)NC2CC2)c2ccc(O)cc2)cc1` [Example 128, N-(2-Aminophenyl)-4-(2-(4-hydroxyphenyl)-3-(cyclopropylamino)-3-oxoprop-1-en-1-yl)benzamide], the GI50 in the assay with NCI-H460 (lung) cells worked out at 26 µM; in the assay on U251 (glioma) cells it was 28 µM; in the assay on HCT 116 (colon) cells, 24 µM. The “HDAC Inhibition % (1 μM)” value in assay [1] stood at 31.8%. Moreover, the “HDAC Inhibition % (10 μM)” value in assay [1] is 55.1%.
Consider `Nc1ccccc1NC(=O)c1ccc(/C=C(/C(=O)NC2CC2)c2c(F)cccc2F)cc1` [Example 129, N-(2-Aminophenyl)-4-(2-(2,6-difluorophenyl)-3-(cyclopropylamino)-3-oxoprop-1-en-1-yl)benzamide], for which the values for the GI50 with NCI-H460 (lung) cells, in the assay with U251 (glioma) cells and in the assay with HCT 116 (colon) cells were 12 µM, 22 µM and 3.5 µM, respectively. In addition, the “HDAC Inhibition % (1 μM)” value in assay [1] was determined as 30.0%. The “HDAC Inhibition % (10 μM)” value in assay [1] turned out to be 54.6%.
As to `Nc1ccccc1NC(=O)c1ccc(/C=C(/C(=O)NC2CC2)c2cc(F)ccc2F)cc1` [Example 130, N-(2-Aminophenyl)-4-(2-(2,5-difluorophenyl)-3-(cyclopropylamino)-3-oxoprop-1-en-1-yl)benzamide], the GI50 came to 9 µM with NCI-H460 (lung) cells, 16 µM with U251 (glioma) cells and 5.8 µM in the assay with HCT 116 (colon) cells. In addition, in assay [1], the “HDAC Inhibition % (1 μM)” value stood at 34.7%. Also, the “HDAC Inhibition % (10 μM)” value in assay [1] worked out at 56.0%.
For `CC(C)NC(=O)/C(=C/c1ccc(C(=O)Nc2ccccc2N)cc1)c1ccc(F)cc1` [Example 131, N-(2-Aminophenyl)-4-(2-(4-fluorophenyl)-3-(isopropylamino)-3-oxoprop-1-en-1-yl)benzamide] the same measures were 18 µM, 19 µM, 4 µM, 28.6% and 57.4%.
For `Nc1ccc(-c2ccccc2)cc1NC(=O)c1ccc(/C=C(/C(=O)NC2CC2)c2ccc(F)cc2)cc1` [Example 132], the GI50 in the assay on NCI-H460 (lung) cells, in the assay with U251 (glioma) cells and in the assay with HCT 116 (colon) cells was above 100 µM each time. Also, the “HDAC Inhibition % (1 μM)” value in assay [1] is 23.5%. The “HDAC Inhibition % (10 μM)” value in assay [1] worked out at 25.3%.
With `Cc1ccccc1/C(=C\c1ccc(C(=O)Nc2ccccc2N)cc1)C(=O)NC1CC1` [Example 133, N-(2-Aminophenyl)-4-(3-(cyclopropylamino)-2-(2-methylphenyl)-3-oxoprop-1-en-1-yl)benzamide], the GI50 in the assay on NCI-H460 (lung) cells was determined as 6.6 µM; in the assay on U251 (glioma) cells it was 12 µM; in the assay on HCT 116 (colon) cells it was 2.8 µM. Moreover, the “HDAC Inhibition % (1 μM)” value in assay [1] came to 39.6%. The “HDAC Inhibition % (10 μM)” value in assay [1] amounted to 56.7%.
Consider `CNC(=O)/C(=C/c1ccc(C(=O)Nc2ccccc2N)cc1)c1ccc(F)cc1` [Example 134, N-(2-Aminophenyl)-4-(3-(methylamino)-2-(4-fluorophenyl)-3-oxoprop-1-en-1-yl)benzamide], for which the results for the 50% growth inhibitory concentration (GI50) with NCI-H460 (lung) cells, with U251 (glioma) cells and in the assay with HCT 116 (colon) cells were 12 µM, 7.5 µM and 6 µM, respectively. Further, the “HDAC Inhibition % (1 μM)” value in assay [1] turned out to be 38.2%. Also, the “HDAC Inhibition % (10 μM)” value in assay [1] was determined as 63.3%.
For `Nc1ccccc1NC(=O)c1ccc(/C=C(\C(=O)NC2CC2)c2ccc(F)cc2)cc1` [Example 135, (Z)—N-(2-Aminophenyl)-4-(2-(4-fluorophenyl)-3-(cyclopropylamino)-3-oxoprop-1-en-1-yl)benzamide], in that order: 76 µM, 9.8 µM, 6.8 µM, 8.6% and 16.6%.
In the case of `Nc1ccccc1NC(=O)c1ccc(/C=C(/C(=O)N2CCOCC2)c2ccc(F)cc2)cc1` [Example 136, N-(2-Aminophenyl)-4-[2-(4-fluorophenyl)-3-morpholin-4-yl-3-oxoprop-1-en-1-yl]benzamide], the GI50 turned out to be 80 µM with NCI-H460 (lung) cells, 21 µM in the assay with U251 (glioma) cells and 40 µM in the assay on HCT 116 (colon) cells. Besides, the “HDAC Inhibition % (1 μM)” value in assay [1] is listed as 36.1%. Besides, in assay [1], the “HDAC Inhibition % (10 μM)” value came to 67.9%.
